Results from patent US8263601B2, “Deuterium substituted xanthine derivatives” (CoNCERT Pharmaceuticals, Inc., priority 2009, dated 2012).

Tests used:
[1] = design: species or system beagle dogs; conditions: dog, in vivo, po
Method: Example 34a was repeated with additional monitoring of the pentoxifylline and Compound 409 metabolites. In this experiment Compound 409 and pentoxifylline were dissolved separately in saline to a concentration of 4.4 and 4 mg/mL respectively. A 1:1 (v/v) mixture of the two solutions was prepared to yield a solution having a final concentration of 2.2 mg/mL of Compound 409 and 2 mg/mL pentoxifylline. Post-dosing data analysis included adjustments to account for the 10% difference in dosing concentration between compound 409 and pentoxifylline.
Four beagle dogs (2-3 years of age, and weighed 5 to 8 kg) were fasted overnight and then orally dosed via gavage with 2.75 mg/kg Compound 409 and 2.5 mg/kg pentoxifylline using the mixture described above. Blood samples (approximately 1 mL) were collected via femoral vein at 0 min (pre-dose), 5 min, 15 min, 30 min, 45 min, 1 hr, 1.5 hr, 2 hr, 3 hr, 4 hr, and 6 hr post-dose. Blood was stored on ice prior to centrifugation to obtain plasma samples. Centrifugation took place within 15 minutes of blood collection to harvest plasma (maximum volume). The plasma was decanted immediately and frozen/stored at −20° C. until analysis.
Plasma samples were analyzed by LC-MS/MS for the presence of the administered compound and its corresponding M1 metabolite:
The results from one of the four dogs (Dog H, FIG. 1b) were inconsistent with that of the other three. […] It was concluded that this dog was most likely improperly gavaged and that the compounds were probably administered through the trachea, rather than into the GI tract as would have been desired. Accordingly, the data from this dog was excluded from the analyses.

[2] = Stability of compounds in rat whole blood (Example 35); type: in vitro ADME; conditions: 5 μM, 37° C., 2 hours, FIG. 3
Method: This study was performed to evaluate the stability of the title compounds in rat whole blood. Because the ketone (or keto-compound; either pentoxifylline or 409) and its corresponding M-1 alcohol metabolite interconvert, levels of these components were measured after either the keto-compound was added to the blood or the M-1 was added. In other words, in some tests the keto-compound was the starting test compound and in other tests an M-1 metabolite was the starting test compound.
Fresh rat whole blood was obtained from ViviSource Laboratories, Waltham, Mass. Stock solutions (7.5 millimolar (mM)) of test compounds were prepared in dimethyl sulfoxide (DMSO). The 7.5 mM stock solutions were diluted to 500 micromolar (μM) in acetonitrile (ACN). To 990 microliters (μL) of blood pre-warmed to 37° C. for 7 minutes was added 10 μl, of 500 μM test compound to a final concentration of 5 μM. The test compounds were pentoxifylline, (S)-M1 metabolite of pentoxifylline, (R)-M1 metabolite of pentoxifylline, Compound 409, Compound 435(S), and Compound 435(R). The latter two test compounds are deuterated (S)-M1 and (R)-M1 metabolites, respectively, of Compound 409. The reaction mixture was incubated at 37° C. Aliquots (50 μL) were removed at 0 min, 5 min, 15 min, 30 min, 1 hour and 2 hours following the addition of test compound and added to 96-well plates containing 150 μL of ice cold acetonitrile with an internal standard to stop the reaction. The plates were stored at −20° C. for 20 minutes after which 100 μL of 50% acetonitrile/water was added to the wells of the plate prior to centrifugation to pellet precipitated proteins. A 200-μL aliquot of each supernatant was transferred to another 96-well plate and analyzed by LC-MS/MS using an Applied Bio-systems API 4000 mass spectrometer for amounts of the administered compound and its specific metabolite listed in Table 11 below.
The results of this study are depicted in FIGS. 2 and 3.

Row | SMILES | Overall systemic exposure to M1 metabolite compared to M1 following dosing of pentoxifylline [1] | Keto-compound (pentoxifylline or Compound 409) formed from M-1 alcohol [2]
1 | [2H]c1nc2c(c(=O)n(CCCC([2H])([2H])C(O)C([2H])([2H])[2H])c(=O)n2C)n1C([2H])([2H])[2H] (racemic) [Compound 419, (±)-8-d1-1-(4,4,6,6,6-d5-5-Hydroxyhexyl)-3-methyl-7-(methyl-d3)-1H-purine-2,6(3H,7H)-dione] | greater | 
2 | C[C@@H](O)CCCCn1c(=O)c2c(ncn2C)n(C)c1=O [(R)-M1, reference compound] |  | No metabolism of (R)-M1 to pentoxifylline was detected
3 | [2H]c1nc2c(c(=O)n(CCCC([2H])([2H])[C@]([2H])(O)C([2H])([2H])[2H])c(=O)n2C)n1C([2H])([2H])[2H] [Compound 435(R), (R)-8-d1-1-(4,4,5,6,6,6-d6-5-Hydroxyhexyl)-3-methyl-7-(methyl-d3)-1H-purine-2,6(3H,7H)-dione] |  | not detected
